Measured values reported in ChEMBL document CHEMBL1145372, “(Phenylpiperidinyl)cyclohexylsulfonamides: development of alpha1a/1d-selective adrenergic receptor antagonists for the treatment of benign prostatic hyperplasia/lower urinary tract symptoms (BPH/LUTS)” (Bioorg Med Chem Lett, 2007).
pKi: −log10 of the molar value.

Experiments:
[1] = molecular target: T1, Alpha-1D adrenergic receptor (Homo sapiens, UniProt P25100); test: Binding affinity to human cloned adrenergic alpha-1d receptor
T1 sequence (P25100 whole entry): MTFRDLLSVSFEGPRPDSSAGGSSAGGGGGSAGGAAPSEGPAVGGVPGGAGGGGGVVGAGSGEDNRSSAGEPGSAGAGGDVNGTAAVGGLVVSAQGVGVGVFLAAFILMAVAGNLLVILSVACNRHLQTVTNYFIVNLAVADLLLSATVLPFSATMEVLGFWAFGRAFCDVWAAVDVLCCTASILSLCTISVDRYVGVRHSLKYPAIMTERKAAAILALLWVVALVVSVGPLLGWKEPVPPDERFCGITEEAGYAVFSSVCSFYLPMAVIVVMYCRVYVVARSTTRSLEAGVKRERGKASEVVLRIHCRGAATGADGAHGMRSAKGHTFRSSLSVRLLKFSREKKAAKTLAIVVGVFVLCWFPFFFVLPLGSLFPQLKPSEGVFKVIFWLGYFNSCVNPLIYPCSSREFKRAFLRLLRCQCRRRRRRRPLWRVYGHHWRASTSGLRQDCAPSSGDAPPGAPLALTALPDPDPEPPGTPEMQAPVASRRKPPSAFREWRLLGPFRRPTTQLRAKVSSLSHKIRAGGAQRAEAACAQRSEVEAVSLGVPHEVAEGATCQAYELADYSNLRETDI

[2] = molecular target: T2, Alpha-1A adrenergic receptor (Homo sapiens, UniProt P35348); test: Binding affinity to human cloned adrenergic alpha-1a receptor
T2 sequence (P35348 whole entry): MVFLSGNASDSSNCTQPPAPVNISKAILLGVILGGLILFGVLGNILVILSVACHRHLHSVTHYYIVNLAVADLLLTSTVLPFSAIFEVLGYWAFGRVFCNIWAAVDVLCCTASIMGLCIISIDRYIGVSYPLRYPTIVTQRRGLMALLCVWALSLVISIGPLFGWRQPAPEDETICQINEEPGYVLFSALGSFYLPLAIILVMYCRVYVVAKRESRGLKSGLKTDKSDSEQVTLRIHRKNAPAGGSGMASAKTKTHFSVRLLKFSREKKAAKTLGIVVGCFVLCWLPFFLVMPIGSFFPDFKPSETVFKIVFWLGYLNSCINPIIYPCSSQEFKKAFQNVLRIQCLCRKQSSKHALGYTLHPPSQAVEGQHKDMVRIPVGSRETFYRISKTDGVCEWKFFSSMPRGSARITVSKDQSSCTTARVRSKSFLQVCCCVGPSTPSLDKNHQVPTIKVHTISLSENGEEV

D(2) dopamine receptor = D(2) dopamine receptor (Homo sapiens, UniProt P14416); test: Binding affinity for dopamine D2 receptor
Chain of D(2) dopamine receptor (P14416 whole entry): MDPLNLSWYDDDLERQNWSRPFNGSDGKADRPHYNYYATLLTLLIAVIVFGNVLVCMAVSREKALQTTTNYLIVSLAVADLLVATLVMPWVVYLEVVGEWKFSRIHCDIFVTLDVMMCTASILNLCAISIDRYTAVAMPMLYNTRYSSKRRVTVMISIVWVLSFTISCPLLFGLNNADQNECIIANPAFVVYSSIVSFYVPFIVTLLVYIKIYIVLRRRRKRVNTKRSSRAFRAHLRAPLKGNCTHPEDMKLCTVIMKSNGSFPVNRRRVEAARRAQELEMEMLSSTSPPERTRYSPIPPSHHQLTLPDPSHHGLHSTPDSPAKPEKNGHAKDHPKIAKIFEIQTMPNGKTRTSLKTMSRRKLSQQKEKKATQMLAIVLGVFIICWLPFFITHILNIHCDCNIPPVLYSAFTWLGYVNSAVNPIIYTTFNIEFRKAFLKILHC

[3] = molecular target: T3, Alpha-1B adrenergic receptor (Homo sapiens, UniProt P35368); test: Binding affinity to human cloned adrenergic alpha-1b receptor
T3 sequence (P35368 whole entry): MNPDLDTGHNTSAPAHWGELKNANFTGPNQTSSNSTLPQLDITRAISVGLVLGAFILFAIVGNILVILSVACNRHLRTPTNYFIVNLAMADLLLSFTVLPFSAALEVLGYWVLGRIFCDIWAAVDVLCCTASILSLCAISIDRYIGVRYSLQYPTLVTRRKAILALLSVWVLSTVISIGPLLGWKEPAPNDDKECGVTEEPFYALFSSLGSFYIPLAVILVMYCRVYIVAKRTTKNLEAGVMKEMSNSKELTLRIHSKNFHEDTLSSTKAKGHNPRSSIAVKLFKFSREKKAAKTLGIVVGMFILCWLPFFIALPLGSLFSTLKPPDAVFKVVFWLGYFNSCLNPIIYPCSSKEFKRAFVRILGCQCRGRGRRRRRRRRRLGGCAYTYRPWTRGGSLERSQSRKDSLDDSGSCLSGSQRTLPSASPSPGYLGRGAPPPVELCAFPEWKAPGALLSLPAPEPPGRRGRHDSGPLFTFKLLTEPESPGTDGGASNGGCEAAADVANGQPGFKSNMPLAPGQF

| SMILES | pKi [2] | pKi (D(2) dopamine receptor) | pKi [1] | pKi [3] |
| --- | --- | --- | --- | --- |
| COc1ccc(S(=O)(=O)N[C@H]2CC[C@H](N3CCC(c4ccccc4OC4CC4)CC3)CC2)cc1OC | 7.96 | 6.88 | 7.47 |  |
| COc1ccc(Cl)cc1S(=O)(=O)N[C@H]1CC[C@H](N2CCC(c3ccccc3OC3CC3)CC2)CC1 |  | 6.81 |  |  |
| O=S(=O)(N[C@H]1CC[C@@H](N2CCC(c3ccccc3OC3CC3)CC2)CC1)c1cc(Cl)ccc1F |  | 6.73 |  |  |
| O=S(=O)(N[C@H]1CC[C@H](N2CCC(c3ccccc3OC3CC3)CC2)CC1)c1cc(Cl)ccc1F |  | 6.80 |  |  |
| O=S(=O)(N[C@H]1CC[C@H](N2CCC(c3ccccc3OC3CC3)CC2)CC1)c1ccc2c(c1)OCO2 |  | 7.15 |  |  |
| O=S(=O)(N[C@H]1CC[C@H](N2CCC(c3ccccc3OCC(F)(F)F)CC2)CC1)c1ccc2c(c1)OCCO2 |  | 7.64 |  | 7.04 |
| O=S(=O)(N[C@H]1CC[C@@H](N2CCC(c3ccccc3OCC(F)(F)F)CC2)CC1)c1cc(Cl)ccc1F | 8.23 | 7.11 |  |  |
| O=S(=O)(N[C@H]1CC[C@H](N2CCC(c3ccccc3OCC(F)(F)F)CC2)CC1)c1cc(Cl)ccc1F | 8.32 | 7.43 |  |  |
| O=S(=O)(N[C@H]1CC[C@@H](N2CCC(c3ccccc3OCC(F)(F)F)CC2)CC1)c1cccc(OC(F)F)c1 |  | 7.07 |  |  |
| O=S(=O)(N[C@H]1CC[C@H](N2CCC(c3ccccc3OCC(F)(F)F)CC2)CC1)c1cccc(OC(F)F)c1 |  | 6.89 |  |  |
| O=S(=O)(N[C@H]1CC[C@H](N2CCC(c3ccccc3OCC(F)(F)F)CC2)CC1)c1ccc(OC(F)F)cc1 | 7.42 | 6.98 |  |  |
| COc1ccc(S(=O)(=O)N[C@H]2CC[C@@H](N3CCC(c4ccc(F)cc4OC(C)C)CC3)CC2)cc1OC |  | 6.97 | 7.92 |  |
| CC(C)Oc1ccccc1C1CCN([C@H]2CC[C@H](NS(=O)(=O)c3ccc(F)c(F)c3)CC2)CC1 | 8.85 | 7.10 | 7.06 | 5.86 |
| O=S(=O)(N[C@H]1CC[C@@H](N2CCC(c3ccccc3OCC(F)(F)F)CC2)CC1)c1ccc(OC(F)F)cc1 |  | 6.81 |  |  |
| COc1ccc(Cl)cc1S(=O)(=O)N[C@H]1CC[C@@H](N2CCC(c3ccccc3OC3CC3)CC2)CC1 |  | 6.89 |  |  |
| O=S(=O)(N[C@H]1CC[C@@H](N2CCC(c3ccccc3OC3CC3)CC2)CC1)c1ccc2c(c1)OCO2 | 7.80 | 7.18 |  |  |
| COc1ccc(S(=O)(=O)N[C@H]2CC[C@@H](N3CCC(c4ccccc4OC(C)C)CC3)CC2)cc1OC | 8.66 | 6.84 | 9.11 |  |
| CC(C)Oc1ccccc1C1CCN([C@H]2CC[C@@H](NS(=O)(=O)c3ccc(F)c(F)c3)CC2)CC1 |  | 7.10 |  |  |
| COc1ccc(Cl)cc1S(=O)(=O)N[C@H]1CC[C@H](N2CCC(c3ccccc3OCC(F)(F)F)CC2)CC1 | 8.00 | 7.09 |  |  |
| O=S(=O)(N[C@H]1CC[C@@H](N2CCC(c3ccccc3OCC(F)(F)F)CC2)CC1)c1ccc2c(c1)OCCO2 |  | 7.24 |  |  |
| COc1ccc(Cl)cc1S(=O)(=O)N[C@H]1CC[C@@H](N2CCC(c3ccccc3OCC(F)(F)F)CC2)CC1 |  | 7.16 | 8.80 |  |
| COc1ccc(S(=O)(=O)N[C@H]2CC[C@@H](N3CCC(c4ccccc4OCCF)CC3)CC2)cc1OC | 8.07 | 6.70 | 8.26 | 6.40 |

More lines, main results first:

| pKi [2] | pKi (D(2) dopamine receptor) | SMILES | pKi [1] | pKi [3] |
| --- | --- | --- | --- | --- |
| 8.74 | 6.95 | COc1ccc(S(=O)(=O)N[C@H]2CC[C@@H](N3CCC(c4ccccc4OCC(F)(F)F)CC3)CC2)cc1OC | 8.66 | 6.91 |
| 7.68 | 7.08 | COc1ccc(S(=O)(=O)N[C@H]2CC[C@H](N3CCC(c4ccccc4OCC(F)(F)F)CC3)CC2)cc1OC | 7.64 | 6.43 |
|  | 6.55 | COc1ccc(S(=O)(=O)N[C@H]2CC[C@H](N3CCC(c4ccccc4OCCF)CC3)CC2)cc1OC |  |  |
| 7.51 | 7.06 | COc1ccc(S(=O)(=O)N[C@H]2CC[C@H](N3CCC(c4ccccc4OCC(F)F)CC3)CC2)cc1OC |  |  |
|  | 6.98 | COc1ccc(S(=O)(=O)N[C@H]2CC[C@H](N3CCC(c4ccc(F)cc4OC(C)C)CC3)CC2)cc1OC |  |  |
|  | 6.75 | COc1ccc(S(=O)(=O)N[C@H]2CC[C@@H](N3CCC(c4cc(F)ccc4OC(C)C)CC3)CC2)cc1OC |  |  |
|  | 6.84 | COc1ccc(S(=O)(=O)N[C@H]2CC[C@@H](N3CCC(c4ccccc4OC4CC4)CC3)CC2)cc1OC |  |  |
|  | 6.56 | COc1ccc(S(=O)(=O)N[C@H]2CC[C@@H](N3CCC(c4ccccc4OCC(F)F)CC3)CC2)cc1OC |  |  |
|  | 7.26 | COc1ccc(S(=O)(=O)N[C@H]2CC[C@H](N3CCC(c4ccccc4OC(C)C)CC3)CC2)cc1OC |  |  |
|  | 7.03 | COc1ccc(S(=O)(=O)N[C@H]2CC[C@H](N3CCC(c4cc(F)ccc4OC(C)C)CC3)CC2)cc1OC |  |  |
